Columns and labels:
[1] = molecular target: T1, tryptophan decarboxylase TDC2 (Camptotheca acuminata, UniProt P93083); assay: Substrate screen for tryptophan decarboxylation, TDC2; format: biochemical, C. accuminata; design: key: +: a clear ninhydrin-positive spot at the Rf of standard tryptophan derivatives after 16-65 h; (+): a weak spot in the product region; −: no product observed; NR: experiment not run; conditions: tryptophan derivative, PLP, pH 7.5, 37° C.
T1 construct: made in house; host or cells: E. coli DH5α (pKK233 plasmid from C. Nessler)
T1 sequence (P93083 1-498): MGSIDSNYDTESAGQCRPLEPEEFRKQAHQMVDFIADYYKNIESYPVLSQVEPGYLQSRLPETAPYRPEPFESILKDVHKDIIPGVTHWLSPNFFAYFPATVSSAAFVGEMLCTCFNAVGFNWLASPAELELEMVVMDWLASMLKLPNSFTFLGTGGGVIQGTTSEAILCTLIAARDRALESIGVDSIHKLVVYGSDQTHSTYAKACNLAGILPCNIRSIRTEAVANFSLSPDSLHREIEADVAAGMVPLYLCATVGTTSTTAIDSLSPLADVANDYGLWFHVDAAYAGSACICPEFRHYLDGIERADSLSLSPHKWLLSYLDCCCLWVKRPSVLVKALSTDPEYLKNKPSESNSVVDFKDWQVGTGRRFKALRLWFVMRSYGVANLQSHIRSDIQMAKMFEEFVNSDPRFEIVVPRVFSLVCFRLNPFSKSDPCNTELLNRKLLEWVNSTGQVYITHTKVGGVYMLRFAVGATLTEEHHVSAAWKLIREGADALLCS
Method: (§1) A mixture containing 1 μmole of the tryptophan derivative, 0.05 μmole of PLP and 50 μmol of L-serine in 40 mM pH 7.5 KPi buffer was warmed to 37° C., then enzyme solution was added to give a final volume of 1 mL. Aliquots (100 HL) were quenched at intervals and were evaporated in a Savant Speed-vac as in Example 6. For TLC analysis, CH2Cl2/EtOH/H2O/HOAc 49:49:1:1 was used as the solvent. The plates were visualized with short-wave UV light and ninhydrin as in Example 6.
(§2) HPLC techniques were used to monitor the decarboxylation of substituted tryptophans. Mass spectral analysis of the collected HPLC peaks was used to confirm the identity of several tryptamine derivatives, as shown in Table 5.

[2] = molecular target: T2, tryptophan decarboxylase TDC1 (Camptotheca acuminata, UniProt P93082); assay: Substrate screen for tryptophan decarboxylation, TDC1; format: biochemical, C. accuminata; design: key: +: a clear ninhydrin-positive spot at the Rf of standard tryptophan derivatives after 16-65 h; (+): a weak spot in the product region; −: no product observed; NR: experiment not run; conditions: tryptophan derivative, PLP, pH 7.5, 37° C.
T2 construct: made in house; host or cells: E. coli DH5α (pKK233 plasmid from C. Nessler)
T2 sequence (P93082 1-502): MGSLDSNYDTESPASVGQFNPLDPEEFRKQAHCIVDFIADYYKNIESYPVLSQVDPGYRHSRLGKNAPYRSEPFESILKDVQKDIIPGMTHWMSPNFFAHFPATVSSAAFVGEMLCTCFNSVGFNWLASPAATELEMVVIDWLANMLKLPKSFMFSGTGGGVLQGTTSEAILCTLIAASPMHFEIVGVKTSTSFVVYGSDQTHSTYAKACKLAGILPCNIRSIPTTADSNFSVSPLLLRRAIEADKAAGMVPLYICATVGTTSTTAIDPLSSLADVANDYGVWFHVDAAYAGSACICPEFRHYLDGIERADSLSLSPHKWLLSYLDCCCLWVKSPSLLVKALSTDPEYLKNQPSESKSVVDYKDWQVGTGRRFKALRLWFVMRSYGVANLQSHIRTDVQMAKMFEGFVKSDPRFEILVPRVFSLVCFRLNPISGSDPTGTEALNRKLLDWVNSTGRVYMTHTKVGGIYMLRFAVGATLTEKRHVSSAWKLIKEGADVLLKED
Method: as §1, §2

[3] = molecular target: T3, pig kidney aromatic amino acid decarboxylase (pkAAAD) (Sus scrofa, UniProt P80041); assay: Substrate screen for tryptophan decarboxylation, pkAAAD; format: biochemical; design: key: +: a clear ninhydrin-positive spot at the Rf of standard tryptophan derivatives after 16-65 h; (+): a weak spot in the product region; −: no product observed; NR: experiment not run; conditions: tryptophan derivative, PLP, pH 7.5, 37° C.
T3 construct: Frozen tissue was partially thawed in lysis buffer, then it was extracted and partially purified; from tissue; host or cells: pig kidney
T3 sequence (P80041 1-486): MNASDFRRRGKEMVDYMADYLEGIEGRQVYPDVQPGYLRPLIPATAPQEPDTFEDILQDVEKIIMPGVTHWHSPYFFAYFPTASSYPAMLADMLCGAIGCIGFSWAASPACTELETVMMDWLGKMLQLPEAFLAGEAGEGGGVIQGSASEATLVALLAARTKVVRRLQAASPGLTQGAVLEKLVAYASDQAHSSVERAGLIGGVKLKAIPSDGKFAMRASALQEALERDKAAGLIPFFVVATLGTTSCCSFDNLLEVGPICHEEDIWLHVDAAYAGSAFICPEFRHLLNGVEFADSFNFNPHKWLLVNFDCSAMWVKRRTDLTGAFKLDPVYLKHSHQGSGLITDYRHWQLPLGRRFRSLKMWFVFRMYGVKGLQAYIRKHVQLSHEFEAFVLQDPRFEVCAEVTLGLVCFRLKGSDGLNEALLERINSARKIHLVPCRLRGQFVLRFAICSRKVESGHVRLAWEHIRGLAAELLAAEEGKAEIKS

TDC1 = molecular target: T4, TDC1 (Camptotheca acuminata, UniProt P93082); assay: Relative decarboxylation rates by Ehrlich's reagent, TDC1; format: biochemical, C. accuminata
T4 construct: made in house; host or cells: E. coli DH5α (pKK233 plasmid from C. Nessler)
T4 sequence (P93082 1-502): T2 sequence (P93082 1-502)
Method: (§3) […] Reaction aliquots were quenched in microcentrifuge capsules containing 50 μL each of 6M HCl to quench the enzyme reaction at 2, 5, and 20 min. Quenched aliquots were heated at 50° C. for 40 min with 750 μL each of Ehrlich's reagent (2:24:74 w/v/v 4-(diethyl)aminobenzaldehyde: conc HCl: ethanol). Absorbance was read at 580-nm and compared with standards of serotonin (10-250 μM) or tryptamine (50 to 2000 μM).
(§4) Relative rates for decarboxylation of L-5-hydroxytryptophan (L-5-HOtrp) and L-tryptophan were determined for TDC1 and TDC2 by use of Ehrlich's reagent, discussed in Example 10.

TDC2 = molecular target: T5, TDC2 (Camptotheca acuminata, UniProt P93083); assay: Relative decarboxylation rates by Ehrlich's reagent, TDC2; format: biochemical, C. accuminata
T5 construct: made in house; host or cells: E. coli DH5α (pKK233 plasmid from C. Nessler)
T5 sequence (P93083 1-498): T1 sequence (P93083 1-498)
Method: as §3, §4

tryptophanase (TnA) = molecular target: T6, tryptophanase (TnA) (Escherichia coli, UniProt P0A853); format: biochemical, E. coli; design: key: +: a clear ninhydrin-positive spot at the Rf of standard tryptophan derivatives after 16-65 h; (+): a weak spot in the product region; −: no product observed; NR: experiment not run; conditions: indole derivative + L-serine + PLP, 37° C., 16-65 h, ninhydrin
T6 construct: made in house; host or cells: E. coli LMG194 (pBAD) or BL-21 (pET)
T6 sequence (P0A853 whole entry): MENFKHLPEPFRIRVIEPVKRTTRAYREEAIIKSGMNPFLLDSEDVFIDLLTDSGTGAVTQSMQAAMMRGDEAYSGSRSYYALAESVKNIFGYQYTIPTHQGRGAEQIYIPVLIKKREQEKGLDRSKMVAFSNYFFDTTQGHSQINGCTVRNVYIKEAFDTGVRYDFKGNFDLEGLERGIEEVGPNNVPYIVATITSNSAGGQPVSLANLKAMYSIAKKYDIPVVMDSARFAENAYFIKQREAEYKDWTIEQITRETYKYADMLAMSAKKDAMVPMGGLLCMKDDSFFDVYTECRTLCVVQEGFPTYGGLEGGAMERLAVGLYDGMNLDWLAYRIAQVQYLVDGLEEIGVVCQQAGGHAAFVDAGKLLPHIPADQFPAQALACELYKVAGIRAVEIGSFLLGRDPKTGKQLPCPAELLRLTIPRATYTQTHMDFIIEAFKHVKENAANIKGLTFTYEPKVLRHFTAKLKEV

[4] = molecular target: T7, E. coli DH5α tryptophan synthase (TrpBA) (Escherichia coli, UniProt P0A879); format: biochemical; design: key: +: a clear ninhydrin-positive spot at the Rf of standard tryptophan derivatives after 16-65 h; (+): a weak spot in the product region; −: no product observed; NR: experiment not run; conditions: indole derivative + L-serine + PLP, 37° C., 16-65 h, ninhydrin
T7 construct: made in house; host or cells: E. coli LMG194 (pBAD) or BL-21 (pET)
T7 sequence (P0A879 whole entry): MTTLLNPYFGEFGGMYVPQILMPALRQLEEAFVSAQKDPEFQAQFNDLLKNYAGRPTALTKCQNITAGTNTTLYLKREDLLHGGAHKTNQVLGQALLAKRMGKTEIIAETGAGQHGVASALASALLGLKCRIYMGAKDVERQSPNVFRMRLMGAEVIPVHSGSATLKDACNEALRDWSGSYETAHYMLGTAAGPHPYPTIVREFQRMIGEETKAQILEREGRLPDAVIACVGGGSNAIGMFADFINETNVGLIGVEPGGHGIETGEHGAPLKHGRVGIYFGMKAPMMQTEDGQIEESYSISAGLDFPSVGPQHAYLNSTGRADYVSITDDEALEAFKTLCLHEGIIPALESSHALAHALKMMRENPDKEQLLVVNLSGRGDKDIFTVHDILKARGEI
T7 sequence (P0A877 whole entry, further chain): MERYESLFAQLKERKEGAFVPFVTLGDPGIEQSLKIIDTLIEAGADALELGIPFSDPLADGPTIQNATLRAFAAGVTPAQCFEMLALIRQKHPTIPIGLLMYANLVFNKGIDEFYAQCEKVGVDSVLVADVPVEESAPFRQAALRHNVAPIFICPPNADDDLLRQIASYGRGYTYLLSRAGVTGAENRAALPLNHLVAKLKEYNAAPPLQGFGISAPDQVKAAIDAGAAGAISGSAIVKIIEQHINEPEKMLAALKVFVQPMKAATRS

TrpBA = molecular target: T8, TrpBA (Escherichia coli, UniProt P0A879); assay: Relative rates of tryptophan derivative synthesis by HPLC, TrpBA; format: biochemical, E. coli; conditions: initial rate estimated by HPLC, indole = 100%, L-serine
T8 construct: made in house; host or cells: E. coli LMG194 (pBAD) or BL-21 (pET)
T8 sequence (P0A879 whole entry): as the sequence (P0A879 whole entry) above
T8 sequence (P0A877 whole entry, further chain): as the sequence (P0A877 whole entry, further chain) above
Method: (§5) Reaction mixtures were prepared as in Example 6 and were incubated at 37° C. Aliquots (100 μL) were removed and quenched by addition of to 300 μL of 0.5 M sodium citrate, pH 3.0 in 10% v/v acetonitrile/water in 2 ml microcentrifuge tubes. Following centrifugation for 10 min at 13,000×g, the supernatants were passed through 0.45μ membrane filters prior to HPLC analysis of 20 μL of filtrate.
(§6) TnA reactions were run with L-serine as the 3-carbon substrate.

TrpBA and TDC1 = assay: Coupled enzyme synthesis monitored by HPLC; format: biochemical; conditions: L-serine, PLP, pH 8.5 phosphate buffer, 37° C.
Method: To a solution containing L-serine (25 μmol), pyridoxal phosphate (0.05 μmol) and TrpBA (0.02 to 1.5 units, depending on the substrate), TDC1 (0.2 mL 0.6 units) and KPi buffer (0.05 mmol, pH 7.5) in a volume of 0.8 mL were added […] of 5 mM indole derivative in 20% v/v ethanol/water. The mixture was incubated at 37° C. and aliquots were quenched and analyzed as described for Example 8. In cases where tryptamine and/or tryptophan standards were not available, peaks were collected for mass spectral analysis. Electrospray mass spectral analyses were performed.
Mixtures containing indole, L-serine, PLP and TDC1 were incubated in pH 8.5 phosphate buffer, analyzing aliquots by HPLC, as described in Example 12.
The procedure used in Example 24 was carried out by substituting indole with 2-methylindole, 4-hydroxymethylindole, 5-methoxy-, 5-hydroxymethyl-, 5-methoxycarbonyl, and 5,6-dimethoxyindole.

TnA = molecular target: T9, TnA (Escherichia coli, UniProt P0A853); assay: Relative rates of tryptophan derivative synthesis by HPLC, TnA; format: biochemical, E. coli; conditions: initial rate estimated by HPLC, indole = 100%, L-serine as the 3-carbon substrate
T9 construct: made in house; host or cells: E. coli LMG194 (pBAD) or BL-21 (pET)
T9 sequence (P0A853 whole entry): as the sequence (P0A853 whole entry) above
Method: as §5, with “Aliquots” for “Reaction mixtures were prepared as in Example 6 and were incubated at 37° C. Aliquots”
as §6

[5] = Tryptophanase (tryptophan lyase) activity of the enzyme preparation; format: biochemical, E. coli
Method: Tryptophan synthase activity was assayed by monitoring the increase in absorbance at 290 nm of a mixture containing serine, indole and PLP (Higgins, W., et al., Biochemistry, 1979, 18, 4827). TnA-catalyzed tryptophan synthesis was also measured by the 290 nm assay, while the tryptophan lyase reaction rate was measured by monitoring the reduction in NADH in reaction mixtures containing L-tryptophan and lactate dehydrogenase, indicating the amount of pyruvate released. Tryptophan decarboxylase was assayed colorimetrically by monitoring the sabsorbance at 580 nm produced by serotonin (AAADs) or tryptamine (TDCs) following treatment of reaction aliquots with Ehrlich's reagent (4-N,N-(dimethyl)aminobenzaldehyde in ethanolic HCl; Nakazawa, H.; Kumagi, H.; Yamada, H. Biochem Biophys. Res. Commun., 1974, 61, 75-82). Serotonin could be detected with approximately 5-fold higher sensitivity by this method as compared with tryptamine. The Ehrlich reagent assay using a microtiter plate format for simultaneous analysis of multiple enzyme samples may also be used. HPLC analysis was performed on acid-quenched reaction aliquots by using a base-deactivated C8 reversed-phase support (Shandon Hypersil BD8). HPLC analysis of acid-quenched aliquots permitted calculation of a rate ratio of 4.5 to 1 for pkAAAD-catalyzed DOPA decarboxylation relative to that of L-5-hydroxytryptophan, in good agreement with the accepted ratio of approximately 5:1. (See Sourkes, T. L. Methods Enzymol., 1987, 142, 170-178, which is incorporated herein by reference.)
Activity is expressed as μmol product formed per minute, TrpBA activity is reported for the reaction: indole+serine−>tryptophan at room temperature as described in the next section. Tryptophanase is reported for the reaction: tryptophan−>indole+pyruvate+NH4^+ at room temperature. The rate of tryptophan synthesis for TrpBA under our assay conditions is approximately 3-fold higher at 37° C.

[6] = pH-rate profiles for tryptophan-metabolizing enzymes; format: biochemical; conditions: between pH 7.5 and 9.5, L-serine and indole
Excerpt: Both AAADs TDC1 and TDC2 were active over the entire optimum range shown by TrpBA. These broad activity ranges make it clear that the coupled enzyme process is not limited by pH.

**Q.** For `N[C@@H](Cc1c[nH]c2ccccc12)C(=O)O` [L-tryptophan], which “TDC2 (decarboxylation substrate screen)” value [1] is on record?
**A.** +

**Q.** What about the “TDC1 (decarboxylation substrate screen)” value [2] of the same molecule?
**A.** +

**Q.** What about the “pkAAAD (decarboxylation substrate screen)” value [3] of the same molecule?
**A.** (+)

**Q.** And the “ratio trp/5HOtrp TDC1 (relative decarboxylation rate)” value (TDC1; pH 7.5)?
**A.** 15.1

**Q.** What about the “ratio trp/5HOtrp TDC1 (relative decarboxylation rate)” value (TDC1; pH 8.5) of the same molecule?
**A.** 10.5

**Q.** What about the “ratio trp/5HOtrp TDC1 (relative decarboxylation rate)” value (TDC1; pH 9.5) of the same molecule?
**A.** 10.3

**Q.** And the “ratio trp/5HOtrp TDC2 (relative decarboxylation rate)” value (TDC2; pH 7.5)?
**A.** 64.1

**Q.** What about the “ratio trp/5HOtrp TDC2 (relative decarboxylation rate)” value (TDC2; pH 8.5) of the same molecule?
**A.** 38.3

**Q.** And the “ratio trp/5HOtrp TDC2 (relative decarboxylation rate)” value (TDC2; pH 9.5)?
**A.** 53.6

**Q.** With `c1ccc2[nH]ccc2c1` [indole, reference compound] as the molecule, how does the “TnA (tryptophan product spot, TLC analysis)” value (tryptophanase (TnA)) read?
**A.** +

**Q.** And the “TrpBA (tryptophan product spot, TLC analysis)” value [4]?
**A.** +

**Q.** What about the “Relative rate (TrpBA)” value (TrpBA) of the same molecule?
**A.** 100%

**Q.** And the “formation of tryptophan derivative and tryptamine (HPLC peaks)” value (TrpBA and TDC1)?
**A.** clearly observable

**Q.** And the “Relative Rate (TnA)” value (TnA)?
**A.** 100%

**Q.** Which Crude specific activity ([5]; Table 3, TnA) does the source give for “TnA: E. coli tryptophanase, E.C. 4.1.99.1, cloned and expressed in E. coli” here?
**A.** 0.8 units/mg

**Q.** What about the Crude spec activity ([5]; TnA, tryptophan->indole+pyruvate+NH4+, room temperature) of the same molecule?
**A.** 0.8

**Q.** What about the Purified specific activity ([5]; TnA, tryptophan->indole+pyruvate+NH4+, room temperature, after DEAE cellulose) of the same molecule?
**A.** 2.0 Units/mg

**Q.** And the “percent of the maximum rate” value [6]?
**A.** ≥ 84%
